Laboratory results reported in US20150018301A1, “LRRK-2-Mediated Neuronal Toxicity” (THE JOHNS HOPKINS UNIVERSITY, priority 2009, published 2015).

Legend:
LRRK2 WT [1] = target: T1, LRRK2 WT (Homo sapiens, UniProt Q5S007); test: In vitro kinase assay: LRRK2 autophosphorylation; format: biochemical; settings: compound 16 μM; phosphorylation normalized to absence of compound; mean ± S.E.M. of three experiments
LRRK2 WT [2] = target: T1, LRRK2 WT; test: In vitro kinase assay: LRRK2-mediated MBP phosphorylation; format: biochemical; settings: compound 16 μM; 30° C., 15 min; normalized to absence of compound; mean ± S.E.M. of three experiments

T1 sequence (Q5S007 whole entry): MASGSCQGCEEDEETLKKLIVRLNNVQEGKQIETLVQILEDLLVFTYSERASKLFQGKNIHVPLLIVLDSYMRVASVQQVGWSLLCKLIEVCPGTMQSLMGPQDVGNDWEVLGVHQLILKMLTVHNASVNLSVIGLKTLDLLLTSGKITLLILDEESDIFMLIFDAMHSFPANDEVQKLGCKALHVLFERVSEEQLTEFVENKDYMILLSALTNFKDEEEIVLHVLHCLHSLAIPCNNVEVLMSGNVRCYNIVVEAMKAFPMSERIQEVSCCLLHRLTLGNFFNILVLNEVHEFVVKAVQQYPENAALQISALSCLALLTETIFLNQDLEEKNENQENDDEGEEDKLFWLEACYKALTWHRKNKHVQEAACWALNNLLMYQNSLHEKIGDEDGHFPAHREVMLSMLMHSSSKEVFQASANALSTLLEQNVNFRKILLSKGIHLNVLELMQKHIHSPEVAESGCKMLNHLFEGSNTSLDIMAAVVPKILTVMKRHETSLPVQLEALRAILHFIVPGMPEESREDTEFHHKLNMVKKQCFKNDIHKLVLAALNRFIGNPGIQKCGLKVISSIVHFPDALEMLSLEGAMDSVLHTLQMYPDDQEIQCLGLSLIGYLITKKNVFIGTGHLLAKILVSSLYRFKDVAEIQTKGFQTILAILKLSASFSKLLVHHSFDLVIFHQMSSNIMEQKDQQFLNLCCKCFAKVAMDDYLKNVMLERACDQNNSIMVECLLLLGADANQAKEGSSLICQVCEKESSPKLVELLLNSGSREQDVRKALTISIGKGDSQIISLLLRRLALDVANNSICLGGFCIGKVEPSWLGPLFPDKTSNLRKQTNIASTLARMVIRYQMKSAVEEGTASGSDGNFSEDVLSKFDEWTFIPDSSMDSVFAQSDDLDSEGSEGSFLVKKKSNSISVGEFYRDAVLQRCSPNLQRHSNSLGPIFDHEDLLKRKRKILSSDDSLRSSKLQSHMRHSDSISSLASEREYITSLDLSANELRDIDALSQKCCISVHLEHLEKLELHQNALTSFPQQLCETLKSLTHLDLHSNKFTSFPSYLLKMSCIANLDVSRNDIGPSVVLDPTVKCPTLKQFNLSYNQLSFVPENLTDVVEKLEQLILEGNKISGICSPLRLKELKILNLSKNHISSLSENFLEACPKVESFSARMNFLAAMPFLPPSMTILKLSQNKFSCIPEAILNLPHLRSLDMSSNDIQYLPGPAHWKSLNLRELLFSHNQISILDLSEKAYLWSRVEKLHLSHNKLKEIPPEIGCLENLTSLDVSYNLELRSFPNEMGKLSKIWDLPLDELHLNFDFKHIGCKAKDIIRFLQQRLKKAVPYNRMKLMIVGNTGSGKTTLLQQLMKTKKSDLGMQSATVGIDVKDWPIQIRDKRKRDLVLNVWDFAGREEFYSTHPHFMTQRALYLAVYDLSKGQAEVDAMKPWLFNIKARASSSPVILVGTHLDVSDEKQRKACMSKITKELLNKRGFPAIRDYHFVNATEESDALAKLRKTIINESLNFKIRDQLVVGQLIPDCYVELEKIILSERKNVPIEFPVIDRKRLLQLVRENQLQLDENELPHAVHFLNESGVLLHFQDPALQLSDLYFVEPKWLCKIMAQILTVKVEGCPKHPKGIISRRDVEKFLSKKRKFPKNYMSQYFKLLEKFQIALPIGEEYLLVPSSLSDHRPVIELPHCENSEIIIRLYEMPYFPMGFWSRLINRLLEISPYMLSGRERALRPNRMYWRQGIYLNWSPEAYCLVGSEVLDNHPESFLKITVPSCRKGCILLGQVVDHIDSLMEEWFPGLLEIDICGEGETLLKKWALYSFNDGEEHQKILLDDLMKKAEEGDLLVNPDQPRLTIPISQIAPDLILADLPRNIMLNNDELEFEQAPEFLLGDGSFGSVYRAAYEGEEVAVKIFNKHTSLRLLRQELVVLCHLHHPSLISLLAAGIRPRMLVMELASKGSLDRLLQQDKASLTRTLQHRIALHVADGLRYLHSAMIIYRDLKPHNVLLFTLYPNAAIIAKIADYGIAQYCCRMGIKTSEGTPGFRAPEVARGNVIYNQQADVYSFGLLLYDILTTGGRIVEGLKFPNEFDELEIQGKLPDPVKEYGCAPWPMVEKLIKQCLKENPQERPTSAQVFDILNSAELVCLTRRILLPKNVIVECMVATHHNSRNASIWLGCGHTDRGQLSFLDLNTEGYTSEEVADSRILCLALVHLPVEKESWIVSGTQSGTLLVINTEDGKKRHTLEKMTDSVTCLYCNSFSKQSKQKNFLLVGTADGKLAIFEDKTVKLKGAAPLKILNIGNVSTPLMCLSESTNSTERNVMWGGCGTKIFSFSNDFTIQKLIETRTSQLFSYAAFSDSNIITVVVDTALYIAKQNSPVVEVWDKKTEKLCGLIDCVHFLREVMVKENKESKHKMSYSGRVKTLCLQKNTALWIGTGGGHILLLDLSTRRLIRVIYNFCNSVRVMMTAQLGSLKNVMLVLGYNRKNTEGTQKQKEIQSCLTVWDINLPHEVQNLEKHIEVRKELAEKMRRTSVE

Compound | LRRK2 autophosphorylation Average ± SEM (LRRK2 WT [1]) | MBP phosphorylation Average ± SEM (LRRK2 WT [2])
OC[C@@H]1O[C@H](n2cnc3cc(Cl)c(Cl)cc32)[C@@H](O)[C@H]1O [Inhibitor 66] | 56.4 ± 12.9 % of control | 120.8 ± 78.0 % of control
N=C(N)NCCNS(=O)(=O)c1cccc2cnccc12 [Inhibitor 37] | 81.1 ± 17.3 % of control | 106.7 ± 25.4 % of control
CC(C)C(C(=O)OC(C#N)c1cccc(Oc2ccccc2)c1)c1ccc(Cl)cc1 (stereo not shown) [Inhibitor 82] | 80.4 ± 13.0 % of control | 61.5 ± 54.0 % of control
CC(C)(C)c1cc(C=C(C#N)C#N)cc(C(C)(C)C)c1O [Inhibitor 20] | 109.0 ± 19.7 % of control | 120.7 ± 29.4 % of control
NCCNS(=O)(=O)c1cccc2cnccc12 [Inhibitor 5] | 53.8 ± 34.5 % of control | 58.3 ± 22.9 % of control
O=P(O)(O)Cc1ccccc1 [Inhibitor 74] | 68.3 ± 1.85 % of control | 121.8 ± 23.6 % of control
O=S(=O)(c1cccc2cnccc12)N1CCCNCC1 [Inhibitor 38] | 84.3 ± 21.9 % of control | 120.4 ± 64.7 % of control
Cn1cnc2c(NCc3ccccc3)nc(NCCO)nc21 [Inhibitor 46] | 72.5 ± 2.1 % of control | 125.3 ± 45.6 % of control
COC(=O)/C=C/c1cc(O)ccc1O [Inhibitor 61] | 73.0 ± 5.3 % of control | 93.9 ± 11.5 % of control
Cc1ccc(S(=O)(=O)/C=C/C#N)cc1 [Inhibitor 65] | 75.1 ± 12.8 % of control | 124.8 ± 23.5 % of control
N#C/C(=C\c1ccc(O)c(O)c1)C(=O)Nc1ccccc1 [Inhibitor 7] | 56.1 ± 27.6 % of control | 75.6 ± 56.9 % of control
N#CC(C#N)=Cc1ccc([N+](=O)[O-])c(O)c1 [Inhibitor 26] | 82.3 ± 10.5 % of control | 114.3 ± 14.1 % of control
O=c1c(-c2ccc(O)cc2)coc2cc(O)ccc12 [Inhibitor 60] | 81.0 ± 31.9 % of control | 141.0 ± 50.8 % of control
CC1(C)[C@H](C=C(Br)Br)[C@@H]1C(=O)O[C@H](C#N)c1cccc(Oc2ccccc2)c1 [Inhibitor 81] | 73.9 ± 2.2 % of control | 99.6 ± 23.1 % of control
CC(=O)c1c(O)c(C)c(O)c(Cc2c(O)c3c(c(C(=O)/C=C/c4ccccc4)c2O)OC(C)(C)C=C3)c1O [Inhibitor 58] | 28.1 ± 39.8 % of control | 147.2 ± 64.3 % of control
Nc1ncc2[nH]cnc2n1 [Inhibitor 44, 2-aminopurine] | 95.3 ± 5.9 % of control | 77.2 ± 86.4 % of control
Cc1cc2ncc(-c3ccccc3)nc2cc1C [Inhibitor 19] | 89.4 ± 12.5 % of control | 104.3 ± 14.6 % of control
CC[C@@H](CO)Nc1nc(NCc2ccccc2)c2ncn(C(C)C)c2n1 [Inhibitor 48] | 69.4 ± 30.1 % of control | 100.1 ± 41.5 % of control
Cl.c1ccc([C@H]2CN3CCSC3=N2)cc1 [Inhibitor 78] | 74.6 ± 1.7 % of control | 133.2 ± 17.6 % of control
C#COC1C(C(=O)O)[C@H]2CC[C@@H]1O2 (stereo partly shown) [Inhibitor 73] | 78.8 ± 5.1 % of control | 128.9 ± 9.4 % of control
O=C(O)c1cc(N(Cc2ccccc2O)Cc2cc(O)ccc2O)ccc1O [Inhibitor 9] | 84.3 ± 21.1 % of control | 65.2 ± 35.5 % of control
C=CC(=O)c1ccc2ccccc2c1 [Inhibitor 64] | 70.7 ± 4.2 % of control | 123.7 ± 26.3 % of control

Compound | LRRK2 autophosphorylation Average ± SEM (LRRK2 WT [1]) | MBP phosphorylation Average ± SEM (LRRK2 WT [2])
O=S(=O)(c1cccc2c(Cl)cccc12)N1CCCNCC1 [Inhibitor 43] | 71.6 ± 2.1 % of control | 120.2 ± 39.6 % of control
N#CC(=C(/N)Sc1ccccc1N)/C(C#N)=C(\N)Sc1ccccc1N [Inhibitor 2] | 86.9 ± 10.3 % of control | 101.0 ± 105 % of control
Cl.O=S(=O)(c1cccc2c(I)cccc12)N1CCCNCC1 [Inhibitor 42] | 87.3 ± 14.8 % of control | 89.4 ± 71.9 % of control
O=c1cc(N2CCOCC2)oc2c(-c3ccccc3)cccc12 [Inhibitor 29] | 79.3 ± 3.6 % of control | 75.5 ± 3.1 % of control
N#CC(C#N)=Cc1cc(O)c(O)c([N+](=O)[O-])c1 [Inhibitor 17] | 89 ± 54.9 % of control | 116.0 ± 9.8 % of control
N#CC(C#N)=Cc1ccc(O)c(O)c1 [Inhibitor 11] | 66.9 ± 2.0 % of control | 55.5 ± 56.5 % of control
CN([C@@H](Cc1ccc(OS(=O)(=O)c2cccc3cnccc23)cc1)C(=O)N1CCN(c2ccccc2)CC1)S(=O)(=O)c1cccc2cnccc12 [Inhibitor 40] | 83.1 ± 22.1 % of control | 125.2 ± 68.8 % of control
COCc1cc(O)c(O)c(O)c1-c1c(COC)cc(O)c(O)c1O [Inhibitor 67] | 79.2 ± 24.2 % of control | 123.2 ± 33.8 % of control
N#CC(C#N)=Cc1cc(O)c(O)c(O)c1 [Inhibitor 12] | 62.8 ± 15.8 % of control | 65.9 ± 31.4 % of control
CC1(C)[C@H](C=C(Cl)Cl)[C@@H]1C(=O)O[C@H](C#N)c1cccc(Oc2ccccc2)c1 [Inhibitor 80] | 66.4 ± 17.4 % of control | 76.9 ± 13.7 % of control
N#C/C(=C\c1ccc(O)c(O)c1)C(=O)NCc1ccccc1 [Inhibitor 25] | 78.5 ± 5.8 % of control | 82.9 ± 17.7 % of control
N#CC(C#N)=Cc1ccc(O)cc1 [Inhibitor 83] | 68.6 ± 35.5 % of control | 118.2 ± 51.8 % of control
CNCCNS(=O)(=O)c1cccc2cnccc12 [Inhibitor 36] | 80.9 ± 3.0 % of control | 50.2 ± 29.4 % of control
N#CC(C#N)=C(N)/C(C#N)=C/c1cc(O)c(O)c(O)c1 [Inhibitor 15] | 79 ± 49.6 % of control | 105.1 ± 19.1 % of control
COc1cc2ncc(-c3ccccc3)nc2cc1OC [Inhibitor 55] | 61.2 ± 9.6 % of control | 131.7 ± 34.2 % of control
O=c1c(-c2ccc(O)cc2)coc2cc(O)cc(O)c12 [Inhibitor 59] | 69.4 ± 37.9 % of control | 63.1 ± 66.7 % of control
Oc1ccc(-c2nc(-c3ccc(F)cc3)c(-c3ccncc3)[nH]2)cc1 [Inhibitor 51] | 64.9 ± 20.9 % of control | 125.5 ± 52.6 % of control
Cc1ccc(NC(=O)c2cccc(N(C)C)c2)cc1NC(=O)c1ccc(O)cc1 [Inhibitor 53] | 89.2 ± 2.7 % of control | 152.6 ± 38.0 % of control
Cc1ccc(-c2nn(C(C)(C)C)c3ncnc(N)c23)cc1 [Inhibitor 24] | 88.3 ± 17.1 % of control | 103.6 ± 60.1 % of control
COC[C@H]1OC(=O)c2coc3c2[C@@]1(C)C1=C(C3=O)[C@@H]2CCC(=O)[C@@]2(C)C[C@H]1OC(C)=O [Inhibitor 30] | 83.0 ± 23.6 % of control | 66.8 ± 29.1 % of control
COc1cc(/C=C(\C#N)C(N)=O)cc(CSc2nc3ccccc3s2)c1O [Inhibitor 8] | 81.7 ± 27.1 % of control | 81.5 ± 17.6 % of control
Oc1cc(O)cc(/C=C/c2ccc(O)c(O)c2)c1 [Inhibitor 23] | 87 ± 38.6 % of control | 93.0 ± 17.8 % of control
